Values after ≈ are worked out from the molar mass of the structure shown.
Legend:
[1] = Solubility of compound in water at pH 6.3; type: physicochemical
[2] = Half life in mouse blood at 1 uM by LC-MS/MS analysis; type: ADME, tissue-based
[3] = system: Rattus norvegicus; assay: Half life in Wistar rat assessed as [3-(3-Ethyl-ureido)-5-(2-methyl-pyridin-4-yl)-isoquinolin-8-ylmethyl]-carbamic Acid Methyl Ester at 0.64 mg/kg, iv administered as solution up to 24 hrs by LC-MS/MS analysis; type: ADME, organism-based; settings: in vivo
[4] = system: Rattus norvegicus; assay: Oral bioavailability in Wistar rat assessed as [3-(3-Ethyl-ureido)-5-(2-methyl-pyridin-4-yl)-isoquinolin-8-ylmethyl]-carbamic Acid Methyl Ester at […] administered as suspension up to 24 hrs by LC-MS/MS analysis; type: ADME, organism-based; settings: in vivo
[5] = Clearance in Wistar rat at 0.64 mg/kg, iv administered as solution up to 24 hrs by LC-MS/MS analysis; type: ADME, organism-based; settings: in vivo
[6] = system: Rattus norvegicus; assay: Volume of distribution in steady state in Wistar rat assessed as [3-(3-Ethyl-ureido)-5-(2-methyl-pyridin-4-yl)-isoquinolin-8-ylmethyl]-carbamic Acid Methyl Ester at 0.64 mg/kg, iv administered as solution up to 24 hrs by LC-MS/MS analysis; type: ADME, organism-based; settings: in vivo
[7] = system: Rattus norvegicus; assay: AUC in Wistar rat assessed as [3-(3-Ethyl-ureido)-5-(2-methyl-pyridin-4-yl)-isoquinolin-8-ylmethyl]-carbamic Acid Methyl Ester at […], po administered as suspension up to 24 hrs by LC-MS/MS analysis; type: ADME, organism-based; settings: in vivo
[8] = Half life in rat blood at 1 uM by LC-MS/MS analysis; type: ADME, tissue-based
[9] = AUC in Wistar rat at 0.64 mg/kg, iv administered as solution up to 24 hrs by LC-MS/MS analysis; type: ADME, organism-based; design: time < 24 hr, dose 0.64 mg/kg, route intravenous; settings: in vivo
[10] = system: Rattus norvegicus; assay: AUC in Wistar rat at […], po administered as suspension up to 24 hrs by LC-MS/MS analysis; type: ADME, organism-based; settings: in vivo, BLD = below limit of detection
[11] = system: Rattus norvegicus; assay: Cmax in Wistar rat assessed as [3-(3-Ethyl-ureido)-5-(2-methyl-pyridin-4-yl)-isoquinolin-8-ylmethyl]-carbamic Acid Methyl Ester at […], po administered as suspension up to 24 hrs by LC-MS/MS analysis; type: ADME, organism-based; settings: in vivo
[12] = system: Staphylococcus aureus; assay: Antibacterial activity against methicillin-sensitive Staphylococcus aureus A-1178 infected in neutropenic mouse assessed as change in bacterial burden in thighs at 38.4 mg/kg, iv administered every 2.75 hrs for 2 times measured 6.5 hrs post infection; type: functional
[13] = Half life in Wistar rat at 0.64 mg/kg, iv administered as solution up to 24 hrs by LC-MS/MS analysis; type: ADME, organism-based; settings: in vivo
[14] = system: Rattus norvegicus; assay: AUC in Wistar rat assessed as [3-(3-Ethyl-ureido)-5-(2-methyl-pyridin-4-yl)-isoquinolin-8-ylmethyl]-carbamic Acid Methyl Ester at 0.64 mg/kg, iv administered as solution up to 24 hrs by LC-MS/MS analysis; type: ADME, organism-based; design: time < 24 hr, dose 0.64 mg/kg, route intravenous; settings: in vivo
[15] = Half life in human blood at 1 uM by LC-MS/MS analysis; type: ADME, tissue-based
[16] = system: Staphylococcus aureus; assay: Antibacterial activity against methicillin-sensitive Staphylococcus aureus A-1178 infected in neutropenic mouse assessed as change in bacterial burden in thighs at […], iv administered every 2.75 hrs for 2 times measured 6.5 hrs post infection; type: functional
[17] = Stability of the compound at room temperature for weeks; type: physicochemical
[18] = system: Rattus norvegicus; assay: Tmax in Wistar rat assessed as [3-(3-Ethyl-ureido)-5-(2-methyl-pyridin-4-yl)-isoquinolin-8-ylmethyl]-carbamic Acid Methyl Ester at […], po administered as suspension up to 24 hrs by LC-MS/MS analysis; type: ADME, organism-based; settings: in vivo
[19] = Volume of distribution in steady state in Wistar rat at 0.64 mg/kg, iv administered as solution up to 24 hrs by LC-MS/MS analysis; type: ADME, organism-based; settings: in vivo, read-out: Vdss
[20] = system: Staphylococcus aureus; assay: Antibacterial activity against methicillin-sensitive Staphylococcus aureus A-1178 infected in neutropenic murine thigh infection model assessed as decrease in bacterial load in thighs administered po 22 hrs post infection measured 24 hrs post infection; type: functional, organism-based

solubility [1] [mg/mL] | half-life at 1 µM [2] [min] | t1/2 [3] [min] | F [4] [%] | clearance [5] [mL/min/kg] | Vdss [6] [L/kg] | AUC [7] [ng·h/mL] | half-life at 1 µM [8] [min] | AUC at 24 h [9] [ng·h/mL] | AUC [10] | Cmax [11] [ng/mL] | half-life [13] [min] | AUC [14] [ng·h/mL] | half-life at 1 µM [15] [min] | Stability [17] | Tmax [18] [min] | Vd [19] [L/kg] | SMILES | Activity [12] [deltalog10CFU] | Activity [16] [deltalog10CFU] | Activity [20]
12.7 (≈ 25.2 mM) | 96 | 48 | 30 | 130 | 1.1 | 310 | 60 | 79 | Bld | 250 | 12 | 301 | 18 | Stable | 30 | 0.5 | CCNC(=O)Nc1cc2c(-c3cc[n+](COP(=O)([O-])O)c(C)c3)ccc(CNC(=O)OC)c2cn1 | < -4.8 | -3.6 | –
– | – | – | – | – | – | – | – | – | – | – | – | – | – | – | – | – | CC(=O)NC[C@H]1CN(c2ccc(N3CCOCC3)c(F)c2)C(=O)O1 | – | – | Dose-dependent effect

Source: ChEMBL document CHEMBL4049438, “Discovery and Optimization of Isoquinoline Ethyl Ureas as Antibacterial Agents” (J Med Chem, 2017)
